In US9451771B2, “Compositions and methods to attract the brown marmorated stink bug (BMSB), Halyomorpha halys” (United States of America as Represented by the Secretary of …, priority 2012, dated 2016):

Tested on: brown marmorated stink bug (BMSB), Halyomorpha halys
Experiment: Field trials of experimental pheromone constituents, baited black pyramid traps
Format: in vivo
Details: for field attractiveness to BMSB (in words): 2011-2012 field trapping
Source text: Field Bioassays. Field Trials of Experimental Pheromone Constituents: Pyramid traps based on dimensions previously used for native stink bugs (Leskey and Hogmire 2005, Hogmire and Leskey 2006) and for brown marmorated stink bugs (Leskey et al. 2012c) were used for all trials. […] Each panel was 1.22 m high, 52 cm wide at the base, and 7 cm wide at the top. Collection jars were constructed based on previously published dimensions (Hogmire and Leskey 2006) with internal cone opening of 1.6 cm with trimmed wire edging to reduce escape. In addition, a Hercon Vaportape™ II (Hercon Environmental, Emigsville, Pa.) was added as a killing agent to prevent escape from traps. In a preliminary study, addition of a killing agent increased trap captures ˜250%. Traps were deployed ˜5 meters from the border of apple and pear orchards at the Appalachian Fruit Research Station or in the border area between wood lots and row crops in Kearneysville, W. Va., Shepherdstown, W. Va., Keedysville, Md., and Beltsville, Md. Traps were spaced ˜50 meters apart. Traps were baited with compounds identified from headspace collections of male BMSB, synthesized and formulated into gray rubber septa or left unbaited.
Fourteen trials were conducted between 19 Apr. to 20 Oct. 2011 (Table 3) and four trials between 20 Mar. to 10 Oct. 2012 (Table 4). Traps were checked a minimum of twice weekly and the treatments were re-randomized at each collection.
All adults and nymphs were removed from traps and recorded. Hercon Vaportape™ strips were changed at four week intervals and lures were changed at two week intervals. Comparisons of adult and nymphal captures used the SAS GLM procedure to evaluate effect of treatment and replicate followed by Tukey's HSD if the model was significant. Appropriate transformations were used to stabilize normality if needed. The effect of sex was dropped from all models because it was never a significant factor.

[1] = AFRS 2011, Trial Eight, 11 August-6 Sept.
[2] = AFRS 2011, Trial One, 19 April-10 May
[3] = Beltsville 2011, Trial Eight, 11 August-6 Sept.
[4] = Beltsville 2011, Trial One, 19 April-10 May
[5] = AFRS 2012, Trial Two, 31 July-14 August
[6] = Beltsville 2012, Trial Two, 1-14 August
[7] = AFRS 2012, Trial Four, 22 September-10 October
[8] = Beltsville 2012, Trial Four, 17 September-2 October
[9] = AFRS 2012, Trial Three, 14 August-13 September
[10] = Beltsville 2012, Trial Three, 14 August-11 September

Row | Structure (SMILES) | field attractiveness to BMSB (in words) | Mean number BMSB adults (±SE) captured [5] [bc per treatment] | Mean number BMSB nymphs (±SE) captured [5] [ab per treatment] | Mean number BMSB adults (±SE) captured [6] [ab per treatment] | Mean number BMSB nymphs (±SE) captured [6] [per treatment] | Mean number BMSB adults (±SE) captured [7] | Mean number BMSB nymphs (±SE) captured [7] [per treatment] | Mean number BMSB adults (±SE) captured [8] [a per treatment] | Mean number BMSB nymphs (±SE) captured [8] [per treatment] | Mean number BMSB adults (±SE) captured [9] | Mean number BMSB nymphs (±SE) captured [9] | Mean number BMSB adults (±SE) captured [10] | Mean number BMSB nymphs (±SE) captured [10] | also measured
1 | CC1=C[C@H](O)[C@@H]([C@@H](C)CC[C@@H]2OC2(C)C)CC1 [Lure #1, (3R,6R,7S,10S)-10,11-epoxy-1-bisabolen-3-ol] | inactive |  |  |  |  |  |  |  |  |  |  |  |  | Mean number BMSB adults (±SE) captured [1]: 3.08 ± 0.55b per trap per sample; Mean number BMSB nymphs (±SE) captured [1]: 14.63 ± 6.06 per trap per sample; Mean number BMSB adults (±SE) captured [2]: 0.03 ± 0.03 per trap per sample; Mean number BMSB nymphs (±SE) captured [2]: 0.00 ± 0.00 per trap per sample; Mean number BMSB adults (±SE) captured [3]: 0.55 ± 0.13ab per treatment; Mean number BMSB nymphs (±SE) captured [3]: 3.49 ± 0.67 per treatment; Mean number BMSB adults (±SE) captured [4]: 0.00 ± 0.20b per treatment; Mean number BMSB nymphs (±SE) captured [4]: 0.00 ± 0.00 per treatment
2 | C[C@H](CC[C@@H]1OC1(C)C)[C@@H]1C=C[C@](C)(O)CC1 [Lure #17, (3R,6R,7R,10S)-10,11-epoxy-1-bisabolen-3-ol] |  | 0.40 ± 0.40 | 7.15 ± 2.65 | 0.20 ± 0.12 | 20.30 ± 8.61 |  |  |  |  |  |  |  |  | 
3 | C[C@H](CC[C@@H]1OC1(C)C)[C@H]1C=C[C@](C)(O)CC1 [Lure #18, (3R,6S,7R,10S)-10,11-epoxy-1-bisabolen-3-ol] | moderately attractive | 0.90 ± 0.38 | 6.50 ± 2.08 | 0.35 ± 0.13 | 23.45 ± 9.95 | 2.48 ± 0.70abc per treatment | 0.60 ± 0.37 | 4.15 ± 1.17 | 0.05 ± 0.05 |  |  |  |  | 
4 | C[C@H](CC[C@@H]1OC1(C)C)[C@H]1C=C[C@@](C)(O)CC1 [Lure #22, (3S,6S,7R,10S)-10,11-epoxy-1-bisabolen-3-ol] | more attractive than #23 |  |  |  |  | 1.36 ± 0.59bc per treatment | 0.80 ± 0.57 | 5.05 ± 1.01 | 0.15 ± 0.11 | 2.73 ± 0.50d per treatment | 7.30 ± 2.02bc per treatment | 2.65 ± 0.44a per treatment | 21.90 ± 6.49ab per treatment | field attractiveness to BMSB (in words) (listed as stereoisomer 1): attracted BMSB females, males, and nymphs
5 | C[C@H](CC[C@H]1OC1(C)C)[C@@H]1C=C[C@](C)(O)CC1 [Lure #23, (3R,6R,7R,10R)-10,11-epoxy-1-bisabolen-3-ol] | not attractive |  |  |  |  |  |  |  |  | 0.75 ± 0.29e per treatment | 2.50 ± 0.53c per treatment | 0.90 ± 0.26b per treatment | 8.38 ± 2.90bc per treatment | 
